Results as given in PMC6422671 (British Journal of Clinical Pharmacology, 2019).

Experiment: Clinical laboratory findings: haematology; data mean (standard deviation)
Type: in vivo, healthy men
Source text: Data are mean (standard deviation).

C[C@@H](N)c1cc(Cl)ccc1Cn1c(=S)[nH]c(=O)c2[nH]ccc21 [AZD4831]
Basophils (5 mg fasted, 24 h): 0.03 (0.01) 10^9 L^–1
Eosinophils (5 mg fasted, 24 h): 0.25 (0.12) 10^9 L^–1
Erythrocyte MCH (5 mg fasted, 24 h): 29.8 (1.2) pg
Erythrocyte MCH concentration (5 mg fasted, 24 h): 340 (5) g L^–1
Erythrocyte MCV (5 mg fasted, 24 h): 87.5 (3.3) fL
Erythrocytes (5 mg fasted, 24 h): 4.90 (0.28) 10^12 L^–1
Haematocrit (5 mg fasted, 24 h): 0.43 (0.02) ratio
Haemoglobin (5 mg fasted, 24 h): 146 (6) g L^–1
Leukocytes (5 mg fasted, 24 h): 5.43 (0.71) 10^9 L^–1
Lymphocytes (5 mg fasted, 24 h): 1.62 (0.37) 10^9 L^–1
Monocytes (5 mg fasted, 24 h): 0.37 (0.06) 10^9 L^–1
Neutrophils (5 mg fasted, 24 h): 3.07 (0.47) 10^9 L^–1
Platelets (5 mg fasted, 24 h): 246 (44) 10^9 L^–1
Reticulocytes (5 mg fasted, 24 h): 76.9 (15.3) 10^9 L^–1
Basophils (5 mg fasted, 48 h): 0.04 (0.02) 10^9 L^–1
Eosinophils (5 mg fasted, 48 h): 0.23 (0.10) 10^9 L^–1
Erythrocyte MCH (5 mg fasted, 48 h): 29.6 (1.0) pg
Erythrocyte MCH concentration (5 mg fasted, 48 h): 338 (6) g L^–1
Erythrocyte MCV (5 mg fasted, 48 h): 87.7 (3.1) fL
Erythrocytes (5 mg fasted, 48 h): 4.88 (0.26) 10^12 L^–1
Haematocrit (5 mg fasted, 48 h): 0.43 (0.02) ratio
Haemoglobin (5 mg fasted, 48 h): 145 (7) g L^–1
Leukocytes (5 mg fasted, 48 h): 5.74 (1.20) 10^9 L^–1
Lymphocytes (5 mg fasted, 48 h): 1.60 (0.38) 10^9 L^–1
Monocytes (5 mg fasted, 48 h): 0.38 (0.06) 10^9 L^–1
Neutrophils (5 mg fasted, 48 h): 3.38 (1.02) 10^9 L^–1
Platelets (5 mg fasted, 48 h): 240 (50) 10^9 L^–1
Reticulocytes (5 mg fasted, 48 h): 84.4 (20.3) 10^9 L^–1
Basophils (5 mg fasted, follow up): 0.04 (0.01) 10^9 L^–1
Eosinophils (5 mg fasted, follow up): 0.26 (0.12) 10^9 L^–1
Erythrocyte MCH (5 mg fasted, follow up): 29.5 (1.1) pg
Erythrocyte MCH concentration (5 mg fasted, follow up): 334 (5) g L^–1
Erythrocyte MCV (5 mg fasted, follow up): 88.2 (3.1) fL
Erythrocytes (5 mg fasted, follow up): 4.98 (0.36) 10^12 L^–1
Haematocrit (5 mg fasted, follow up): 0.44 (0.02) ratio
Haemoglobin (5 mg fasted, follow up): 147 (8) g L^–1
Leukocytes (5 mg fasted, follow up): 5.94 (1.03) 10^9 L^–1
Lymphocytes (5 mg fasted, follow up): 1.47 (0.34) 10^9 L^–1
Monocytes (5 mg fasted, follow up): 0.45 (0.15) 10^9 L^–1
Neutrophils (5 mg fasted, follow up): 3.59 (0.73) 10^9 L^–1
Platelets (5 mg fasted, follow up): 249 (38) 10^9 L^–1
Reticulocytes (5 mg fasted, follow up): 91.6 (15.7) 10^9 L^–1
Basophils (15 mg fasted, 24 h): 0.04 (0.01) 10^9 L^–1
Eosinophils (15 mg fasted, 24 h): 0.21 (0.07) 10^9 L^–1
Erythrocyte MCH (15 mg fasted, 24 h): 29.6 (0.7) pg
Erythrocyte MCH concentration (15 mg fasted, 24 h): 341 (2) g L^–1
Erythrocyte MCV (15 mg fasted, 24 h): 86.8 (2.0) fL
Erythrocytes (15 mg fasted, 24 h): 5.08 (0.27) 10^12 L^–1
Haematocrit (15 mg fasted, 24 h): 0.44 (0.03) ratio
Haemoglobin (15 mg fasted, 24 h): 150 (9) g L^–1
Leukocytes (15 mg fasted, 24 h): 5.94 (1.90) 10^9 L^–1
Lymphocytes (15 mg fasted, 24 h): 1.75 (0.55) 10^9 L^–1
Monocytes (15 mg fasted, 24 h): 0.46 (0.17) 10^9 L^–1
Neutrophils (15 mg fasted, 24 h): 3.37 (1.36) 10^9 L^–1
Platelets (15 mg fasted, 24 h): 193 (28) 10^9 L^–1
Reticulocytes (15 mg fasted, 24 h): 77.2 (18.6) 10^9 L^–1
Basophils (15 mg fasted, 48 h): 0.04 (0.01) 10^9 L^–1
Eosinophils (15 mg fasted, 48 h): 0.22 (0.07) 10^9 L^–1
Erythrocyte MCH (15 mg fasted, 48 h): 29.5 (1.1) pg
Erythrocyte MCH concentration (15 mg fasted, 48 h): 340 (7) g L^–1
Erythrocyte MCV (15 mg fasted, 48 h): 86.9 (2.9) fL
Erythrocytes (15 mg fasted, 48 h): 5.03 (0.23) 10^12 L^–1
Haematocrit (15 mg fasted, 48 h): 0.44 (0.02) ratio
Haemoglobin (15 mg fasted, 48 h): 148 (8) g L^–1
Leukocytes (15 mg fasted, 48 h): 6.08 (1.88) 10^9 L^–1
Lymphocytes (15 mg fasted, 48 h): 1.71 (0.49) 10^9 L^–1
Monocytes (15 mg fasted, 48 h): 0.52 (0.21) 10^9 L^–1
Neutrophils (15 mg fasted, 48 h): 3.47 (1.39) 10^9 L^–1
Platelets (15 mg fasted, 48 h): 204 (25) 10^9 L^–1
Reticulocytes (15 mg fasted, 48 h): 78.1 (24.5) 10^9 L^–1
Basophils (15 mg fasted, follow up): 0.04 (0.02) 10^9 L^–1
Eosinophils (15 mg fasted, follow up): 0.22 (0.08) 10^9 L^–1
Erythrocyte MCH (15 mg fasted, follow up): 29.1 (1.0) pg
Erythrocyte MCH concentration (15 mg fasted, follow up): 334 (2) g L^–1
Erythrocyte MCV (15 mg fasted, follow up): 87.3 (2.5) fL
Erythrocytes (15 mg fasted, follow up): 5.06 (0.37) 10^12 L^–1
Haematocrit (15 mg fasted, follow up): 0.44 (0.03) ratio
Haemoglobin (15 mg fasted, follow up): 147 (10) g L^–1
Leukocytes (15 mg fasted, follow up): 5.81 (1.43) 10^9 L^–1
Lymphocytes (15 mg fasted, follow up): 1.63 (0.38) 10^9 L^–1
Monocytes (15 mg fasted, follow up): 0.49 (0.07) 10^9 L^–1
Neutrophils (15 mg fasted, follow up): 3.32 (1.20) 10^9 L^–1
Platelets (15 mg fasted, follow up): 221 (33) 10^9 L^–1
Reticulocytes (15 mg fasted, follow up): 89.9 (32.9) 10^9 L^–1
Basophils (45 mg fasted, 24 h): 0.04 (0.02) 10^9 L^–1
Eosinophils (45 mg fasted, 24 h): 0.20 (0.12) 10^9 L^–1
Erythrocyte MCH (45 mg fasted, 24 h): 28.4 (2.1) pg
Erythrocyte MCH concentration (45 mg fasted, 24 h): 335 (8) g L^–1
Erythrocyte MCV (45 mg fasted, 24 h): 84.8 (5.8) fL
Erythrocytes (45 mg fasted, 24 h): 5.01 (0.18) 10^12 L^–1
Haematocrit (45 mg fasted, 24 h): 0.42 (0.03) ratio
Haemoglobin (45 mg fasted, 24 h): 142 (9) g L^–1
Leukocytes (45 mg fasted, 24 h): 5.28 (1.15) 10^9 L^–1
Lymphocytes (45 mg fasted, 24 h): 1.74 (0.42) 10^9 L^–1
Monocytes (45 mg fasted, 24 h): 0.37 (0.13) 10^9 L^–1
Neutrophils (45 mg fasted, 24 h): 2.83 (0.90) 10^9 L^–1
Platelets (45 mg fasted, 24 h): 220 (39) 10^9 L^–1
Reticulocytes (45 mg fasted, 24 h): 69.8 (16.4) 10^9 L^–1
Basophils (45 mg fasted, 48 h): 0.04 (0.02) 10^9 L^–1
Eosinophils (45 mg fasted, 48 h): 0.21 (0.10) 10^9 L^–1
Erythrocyte MCH (45 mg fasted, 48 h): 28.4 (2.3) pg
Erythrocyte MCH concentration (45 mg fasted, 48 h): 335 (15) g L^–1
Erythrocyte MCV (45 mg fasted, 48 h): 84.9 (5.9) fL
Erythrocytes (45 mg fasted, 48 h): 5.02 (0.33) 10^12 L^–1
Haematocrit (45 mg fasted, 48 h): 0.43 (0.03) ratio
Haemoglobin (45 mg fasted, 48 h): 142 (8) g L^–1
Leukocytes (45 mg fasted, 48 h): 5.69 (1.06) 10^9 L^–1
Lymphocytes (45 mg fasted, 48 h): 1.79 (0.36) 10^9 L^–1
Monocytes (45 mg fasted, 48 h): 0.38 (0.10) 10^9 L^–1
Neutrophils (45 mg fasted, 48 h): 3.16 (0.95) 10^9 L^–1
Platelets (45 mg fasted, 48 h): 222 (44) 10^9 L^–1
Reticulocytes (45 mg fasted, 48 h): 77.3 (19.5) 10^9 L^–1
Basophils (45 mg fasted, follow up): 0.05 (0.02) 10^9 L^–1
Eosinophils (45 mg fasted, follow up): 0.20 (0.15) 10^9 L^–1
Erythrocyte MCH (45 mg fasted, follow up): 28.3 (2.3) pg
Erythrocyte MCH concentration (45 mg fasted, follow up): 333 (10) g L^–1
Erythrocyte MCV (45 mg fasted, follow up): 85.0 (5.8) fL
Erythrocytes (45 mg fasted, follow up): 5.08 (0.35) 10^12 L^–1
Haematocrit (45 mg fasted, follow up): 0.43 (0.02) ratio
Haemoglobin (45 mg fasted, follow up): 143 (7) g L^–1
Leukocytes (45 mg fasted, follow up): 5.88 (1.09) 10^9 L^–1
Lymphocytes (45 mg fasted, follow up): 1.61 (0.45) 10^9 L^–1
Monocytes (45 mg fasted, follow up): 0.45 (0.13) 10^9 L^–1
Neutrophils (45 mg fasted, follow up): 3.45 (1.25) 10^9 L^–1
Platelets (45 mg fasted, follow up): 245 (38) 10^9 L^–1
Reticulocytes (45 mg fasted, follow up): 79.1 (19.3) 10^9 L^–1
